Laboratory results taken from patent US6376670B1, “Quinoline-indole antimicrobial agents, uses and compositions related thereto” (Sepracor Inc., priority 1997, dated 2002).
Where two headings read alike, the source gives them in different places.

Columns and labels:
Test in all cases: Determination of MIC values (BHI broth, 96 well microtiter plate)
Format in all cases: cell-based
Streptococcus pneumoniae = conditions: for MIC: Streptococcus pneumoniae, read-out: MIC S. pneu
Summary of the method: (§1)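 MIC was read as the lowest drug concentration without observable growth after roughly 16 h at 37 °C under about 7–10% CO2. Wells held BHI broth with compound at final 25–0.39 μg/mL (1:100 from DMSO dilutions). Each well was inoculated at 10^5–10^6 cells/mL.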

[1] = test system: methicillin-resistant Staphylococcus aureus (MRSA); conditions: Staphylococcus aureus, MRSA, read-out: MIC MRSA
Summary of the method: as §1

[2] = test system: vancomycin-resistant Enterococcus spp. (VRE); conditions: Enterococcus, VRE, read-out: MIC VREF
Summary of the method: as §1

[3] = S. pneu, BHI broth, overnight 37° C.
[4] = VREF, BHI broth, overnight 37° C.
[5] = BHI broth, 37° C., about 16 hours
[6] = 16 h, BHI broth, 37° C., about 16 hours
[7] = BHI broth, 37° C., overnight (about 16 hours)
[8] = 16 h, BHI broth, 37° C., overnight (about 16 hours)

Row | SMILES | MIC (Streptococcus pneumoniae; [3]) [µg/mL] | MIC ([1]; BHI broth, overnight 37° C.) [µg/mL] | MIC [2, 4] [µg/mL] | MIC (Streptococcus pneumoniae; [5]) [µg/mL] | MIC [1, 6] [µg/mL] | MIC [2, 6] [µg/mL] | other results
1 | Cn1cc(-c2cc(C(=O)NCC3CCC(CN)CC3)c3cc(Cl)ccc3n2)c2cc(Br)ccc21 (stereo not drawn) [Example 368] | < 7 | < 7 | < 7 | – | – | – | –
2 | Clc1ccc2nc(-c3c[nH]c4ccc(Cl)cc34)ccc2c1 [Example 287] | < 7 | < 7 | > 25 | – | – | – | –
3 | Clc1ccc2c(Cl)cc(-c3c[nH]c4ccccc34)nc2c1 [Example 482] | – | – | – | < 7 | < 7 | < 7 | –
4 | CC(C)(C)OC(=O)n1cc(/C=N/c2cccc(Cl)c2)c2cc(Br)ccc21 [Example 381] | > 25 | > 25 | > 25 | – | – | – | –
5 | C[Si](C)(C)CCOC(=O)n1cc(C=O)c2cc(Br)ccc21 [Example 382] | – | – | – | – | – | – | MIC (Streptococcus pneumoniae): > 25 µg/mL; MIC [1]: > 25 µg/mL; MIC [2]: > 25 µg/mL
6 | Cc1ccc2nc(-c3c[nH]c4ccc(OCc5ccccc5)cc34)ccc2c1 [Example 469] | – | – | – | < 7 | < 7 | > 25 | –
7 | Cc1ccc2nc(-c3c[nH]c4ccc(Br)cc34)cc(C(=O)NCc3cccc(CN)c3)c2c1 [Example 122] | – | – | – | – | – | – | MIC (Streptococcus pneumoniae; [7]): < 7 µg/mL; MIC [1, 8]: < 7 µg/mL; MIC [2, 8]: < 7 µg/mL
8 | Clc1ccc2nc(-c3c[nH]c4ccc(OCc5ccccc5)cc34)ccc2c1 [Example 289] | < 7 | < 7 | > 25 | – | – | – | –
9 | NCc1ccc(CNC(=O)c2cc(-c3c[nH]c4ccc(Cl)cc34)nc3ccc(Br)cc23)cc1 [Example 229] | < 7 | < 7 | < 7 | – | – | – | –
10 | Clc1ccc2c(-c3cc(Cl)c4ccccc4n3)c[nH]c2c1 [Example 343] | < 7 | < 7 | > 25 | – | – | – | –
11 | COc1ccc2nc(-c3c[nH]c4cc(F)ccc34)ccc2c1 [Example 413] | – | – | – | > 25 | > 25 | > 25 | –
12 | CNCCN(C)C(=O)c1cc(-c2c[nH]c3ccc(Br)cc23)nc2cc(Cl)ccc12 [Example 501] | – | – | – | < 7 | < 7 | < 7 | –
13 | Cc1ccc2nc(-c3c(C)[nH]c4ccc(C)cc34)ccc2c1 [Example 439] | – | – | – | > 25 | > 25 | > 25 | –
14 | CNCCN(C)C(=O)c1cc(-c2c[nH]c3ccc(Br)cc23)nc2ccc(Cl)cc12 [Example 500] | – | – | – | < 7 | < 7 | < 7 | –
15 | Cc1cccc2ccc(-c3c[nH]c4ccc(Cl)cc34)nc12 [Example 427] | – | – | – | > 25 | > 25 | > 25 | –
16 | NCC1CCC(CNC(=O)c2cc(-c3c[nH]c4ccc(Br)cc34)nc3ccc(I)cc23)CC1 (stereo not drawn) [Example 114] | – | – | – | – | – | – | MIC (Streptococcus pneumoniae; [7]): < 7 µg/mL; MIC [1, 8]: < 7 µg/mL; MIC [2, 8]: < 7 µg/mL
17 | NCc1ccc(CNC(=O)c2cc(-c3c[nH]c4ccc(Br)cc34)nc3ccc(C#CCN4CCCC4)cc23)cc1 [Example 238] | < 7 | < 7 | < 25 | – | – | – | –
18 | Cn1cc(-c2cc(C(=O)NCCN)c3cc(C#CCNCCc4ccc(Cl)cc4)ccc3n2)c2cc(Br)ccc21 [Example 400] | – | – | – | < 7 | < 7 | < 7 | –
19 | Cn1cc(-c2cc(C(=O)NCc3ccc(CN)cc3)c3cc(C#CCN4CCc5ccccc5C4)ccc3n2)c2cc(Br)ccc21 [Example 394] | > 25 | > 25 | > 25 | – | – | – | –
20 | NCc1ccc(CNC(=O)c2cc(-c3c[nH]c4ccc(Br)cc34)nc3cc(Cl)c(C#CCN4CCSCC4)cc23)cc1 [Example 272] | < 7 | < 7 | < 7 | – | – | – | –
21 | NCc1ccc(CNC(=O)c2cc(-c3c[nH]c4c(Br)cccc34)nc3ccccc23)cc1 [Example 261] | < 25 | < 25 | < 25 | – | – | – | –

Row | SMILES | MIC (Streptococcus pneumoniae; [3]) [µg/mL] | MIC ([1]; BHI broth, overnight 37° C.) [µg/mL] | MIC [2, 4] [µg/mL] | MIC (Streptococcus pneumoniae; [5]) [µg/mL] | MIC [1, 6] [µg/mL] | MIC [2, 6] [µg/mL] | other results
22 | NCC(O)CNC(=O)c1cc(-c2c[nH]c3ccc(Br)cc23)nc2cc(F)ccc12 (stereo not drawn) [Example 532] | – | – | – | < 7 | < 7 | < 7 | –
23 | NCC1CCC(CNC(=O)c2cc(-c3c[nH]c4ccc(Br)cc34)nc3ccc(Br)cc23)CC1 (stereo not drawn) [Example 124] | – | – | – | – | – | – | MIC (Streptococcus pneumoniae; [7]): < 7 µg/mL; MIC [1, 8]: < 7 µg/mL; MIC [2, 8]: < 7 µg/mL
24 | Clc1ccc2nc(-c3c[nH]c4ccc(Cl)cc34)ccc2c1 [Example 484] | – | – | – | – | < 7 | > 25 | MIC S. pneu (Streptococcus pneumoniae; [5]): < 7 µg/mL
25 | CNCCN(C)C(=O)c1cc(-c2cn(C)c3ccc(Br)cc23)nc2cc(Cl)ccc12 [Example 506] | – | – | – | < 7 | < 7 | < 7 | –
26 | OCc1cc(-c2c[nH]c3ccc(Br)cc23)nc2c(F)cccc12 [Example 444] | – | – | – | < 7 | < 7 | < 25 | –
27 | O=C(O)c1cc(-c2c[nH]c3ccc(Br)cc23)nc2cc(F)cc(Cl)c12 [Example 297] | < 25 | < 25 | < 25 | – | – | – | –
28 | Clc1cc(-c2c[nH]c3c(Br)cccc23)nc2ccccc12 [Example 346] | < 25 | < 25 | > 25 | – | – | – | –
29 | NCCNC(=O)c1cc(-c2c[nH]c3ccc(Br)cc23)nc2c(Cl)cc(I)cc12 [Example 314] | < 7 | < 7 | < 7 | – | – | – | –
30 | Cc1ccc2nc(-c3c(C)[nH]c4ccccc34)ccc2c1 [Example 466] | – | – | – | < 25 | > 25 | > 25 | –
31 | Cn1cc(-c2cc(C(=O)NCCN)c3cc(C#CCN4CCCC4)ccc3n2)c2cc(Br)ccc21 [Example 403] | – | – | – | < 7 | < 7 | < 7 | –
32 | NCCNC(=O)c1cc(-c2c[nH]c3ccc(Br)cc23)nc2cc(Cl)c(C#CCNCCc3ccccc3)cc12 [Example 530] | – | – | – | < 7 | < 7 | < 7 | –
33 | OCc1cc(-c2c[nH]c3ccc(Br)cc23)nc2ccc(I)cc12 [Example 452] | – | – | – | < 7 | < 7 | > 25 | –
34 | COc1ccc2nc(-c3c(C)[nH]c4ccccc34)ccc2c1 [Example 449] | – | – | – | > 25 | > 25 | > 25 | –
35 | NCc1ccc(CNC(=O)c2cc(-c3c[nH]c4ccc(Br)cc34)nc3ccc(C#CCN4CCNCC4)cc23)cc1 [Example 208] | < 25 | < 7 | < 25 | – | – | – | –
36 | Cn1cc(-c2cc(C(=O)NCc3ccc(CN)cc3)c3cc(C#CCNCC4CCCCC4)ccc3n2)c2cc(Br)ccc21 [Example 391] | < 7 | < 7 | < 7 | – | – | – | –
37 | CCB(OC)C(=O)c1cc(-c2c[nH]c3ccc(Br)cc23)nc2cc(Br)ccc12 [Example 375] | > 25 | > 25 | > 25 | – | – | – | –
38 | NCc1ccc(CNC(=O)c2cc(-c3c[nH]c4ccc(Br)cc34)nc3c(C#CCN4CC=CCC4)cccc23)cc1 [Example 305] | < 7 | < 7 | < 7 | – | – | – | –
39 | NCC1CCC(CNC(=O)c2cc(-c3c[nH]c4ccc(Br)cc34)nc3c(F)cccc23)CC1 (stereo not drawn) [Example 258] | < 7 | < 7 | < 7 | – | – | – | –
40 | Clc1ccc2[nH]cc(-c3ccc4ccccc4n3)c2c1 [Example 168] | – | – | – | – | – | – | MIC (Streptococcus pneumoniae; [7]): < 7 µg/mL; MIC [1, 8]: < 7 µg/mL; MIC [2, 8]: > 25 µg/mL
41 | NCCNC(=O)c1cc(-c2c[nH]c3ccc(Br)cc23)nc2cc(Cl)c(C#CCN3CCSCC3)cc12 [Example 528] | – | – | – | < 7 | < 7 | < 7 | –
42 | Cn1cc(-c2cc(C(=O)NCC3CCCC(CN)C3)c3cc(Cl)ccc3n2)c2cc(Br)ccc21 (stereo not drawn) [Example 369] | < 7 | < 7 | < 7 | – | – | – | –
